The values below are quoted from earlier work in patent US5441887A, “Rapid degradation of halogenated hydrocarbons by soluble methane monooxygenase” (Regents of the University of Minnesota, priority 1994, dated 1995).

Molecules are shown by their SMILES.

This data set has as its system Methylococcus capsulatus Bath. The note with it: aerobe Methylococcus capsulatus Bath; cited from earlier work.

Regarding `ClC(Cl)Cl` [chloroform], the Oxidation rate is reported as 35 nano-moles per gram of cells per minute.
